Each block holds one molecule with its values, some of them ahead of it.
How the values were obtained:
[1] = tested on: lipase (reference L3126 from Sigma); assay: Hydrolysis of ascorbyl palmitate by lipase with or without blue light radiation (palmitic acid released); assay type: biochemical; settings: for Test - Control % of variation versus control: light 400-510 nm vs no light; for Test (in ppm palmitic acid released in reaction medium) / Control (in ppm palmitic acid released in reaction medium): lipase + ascorbyl palmitate; for Test (in ppm palmitic acid released in reaction medium): light 400-510 nm; for Control (in ppm palmitic acid released in reaction medium): no light exposure
Method: The lipase (reference L3126 from Sigma) is exposed with stirring to a light radiation with a predominant wavelength of 400-510 nm (FIG. 2: spectrum of blue light used, intensity 0.5 mW/cm^2) in the presence of ethyl lactate (from Sigma or Fluka) according to the set-up described in FIG. 1. The same protocol as that described in Example 1 is carried out, with the replacement of ethyl lactate by ascorbyl palmitate. In the presence of lipase, the ascorbyl palmitate hydrolyses to give palmitic acid and ascorbic acid. The lipase is exposed with stirring to the said radiation with a predominant wavelength ranging from 400 to 510 nm (blue spectrum) in the presence of ascorbyl palmitate. An increase in the hydrolysis proportional to the time of exposure of the lipase to the said radiation is found, as presented in the following table: […]

[2] = tested on: lipase (reference L3126 from Sigma); assay: Hydrolysis of ethyl lactate by lipase with or without blue light radiation (lactic acid formed is determined); assay type: biochemical; settings: for Test - Control % of variation versus control: light 400-510 nm vs no light; for Test (ppm lactic acid in reaction medium) / Control (ppm lactic acid in reaction medium): lipase + ethyl lactate; for Test (ppm lactic acid in reaction medium): light 400-510 nm; for Control (ppm lactic acid in reaction medium): no light exposure
Excerpt: In the presence of lipase, ethyl lactate is hydrolysed to give L-lactate (which reacts with water to give lactic acid) and ethanol. The lactic acid thus formed is quantitatively determined.
The lipase (reference L3126 from Sigma) is exposed with stirring to a light radiation with a predominant wavelength of 400-510 nm (FIG. 2: spectrum of blue light used, intensity 0.5 mW/cm^2) in the presence of ethyl lactate (from Sigma or Fluka) according to the set-up described in FIG. 1.
The control corresponds to bringing together the lipase and the ethyl lactate under the same conditions, without exposure to the said light radiation. An increase in the hydrolysis of the ethyl lactate, with respect to the control, is found.

Test - Control % of variation versus control ([1]; reaction time 20 min): 1.71%
Test - Control % of variation versus control ([1]; reaction time 40 min): 2.95%
Test - Control % of variation versus control ([1]; reaction time 60 min): 9.92%
Test - Control % of variation versus control ([1]; reaction time 90 min): 11.72%
Test (in ppm palmitic acid released in reaction medium) ([1]; reaction time 20 min): 63.96 ppm
Test (in ppm palmitic acid released in reaction medium) ([1]; reaction time 40 min): 77.15 ppm
Test (in ppm palmitic acid released in reaction medium) ([1]; reaction time 60 min): 98.99 ppm
Test (in ppm palmitic acid released in reaction medium) ([1]; reaction time 90 min): 119.51 ppm
Control (in ppm palmitic acid released in reaction medium) ([1]; reaction time 20 min): 62.89 ppm
Control (in ppm palmitic acid released in reaction medium) ([1]; reaction time 40 min): 74.87 ppm
Control (in ppm palmitic acid released in reaction medium) ([1]; reaction time 60 min): 89.16 ppm
Control (in ppm palmitic acid released in reaction medium) ([1]; reaction time 90 min): 105.5 ppm
Structure (SMILES): CCCCCCCCCCCCCCCC(=O)OC[C@H](O)[C@H]1OC(=O)C(O)=C1O [ascorbyl palmitate]

Test - Control % of variation versus control ([2]; reaction time 20 min): 5.16%
Test - Control % of variation versus control ([2]; reaction time 40 min): 9.08%
Test - Control % of variation versus control ([2]; reaction time 90 min): 17.94%
Test (ppm lactic acid in reaction medium) ([2]; 0.5 mW/cm^2, reaction time 20 min): 0.48 ppm
Test (ppm lactic acid in reaction medium) ([2]; 0.5 mW/cm^2, reaction time 40 min): 0.69 ppm
Test (ppm lactic acid in reaction medium) ([2]; 0.5 mW/cm^2, reaction time 90 min): 0.84 ppm
Control (ppm lactic acid in reaction medium) ([2]; reaction time 20 min): 0.45 ppm
Control (ppm lactic acid in reaction medium) ([2]; reaction time 40 min): 0.62 ppm
Control (ppm lactic acid in reaction medium) ([2]; reaction time 90 min): 0.69 ppm
Structure (SMILES): CCOC(=O)C(C)O (stereo not drawn) [ethyl lactate]

— patent US20110130704A1, “COMBINATION OF A LIGHT RAY AND A LIPASE-BIOCONVERTIBLE COMPOUND FOR IMPROVING SKIN AND/OR HAIR APPEARANCE” (L'OREAL, priority 2008, published 2011)
